These compounds were tested against T1, humanen CGRP-Rezeptor (Homo sapiens, UniProt O60894+Q16602) (assay: Binding studies with SK-N-MC cell membranes, displacement of 125I-Iodotyrosyl-CGRP). Conditions: SK-N-MC membrane homogenate, 50 pM 125I-Iodotyrosyl-CGRP, 180 min, room temperature.
T1 construct: endogenous in cells; host or cells: SK-N-MC cells (membrane homogenate)
Text: Zum Nachweis der Affinität der voranstehend genannten Verbindungen zu humanen CGRP-Rezeptoren und ihrer antagonistischen Eigenschaften wurden die folgenden Versuche durchgeführt: • A. Bindungsstudien mit (den humanen CGRP-Rezeptor exprimierenden) SK-N-MC-Zellen SK-N-MC-Zellen werden in "Dulbecco's modified Eagle Medium" kultiviert. Das Medium konfluenter Kulturen wird entfernt. Die Zellen werden zweimal mit PBS-Puffer (Gibco 041-04190 M) gewaschen, durch Zugabe von PBS-Puffer, versetzt mit 0.02% EDTA, abgelöst und durch Zentrifugation isoliert. Nach Resuspension in 20 ml "Balanced Salts Solution" [BSS (in mM): NaCl 120, KCl 5.4, NaHCO3 16.2, MgSO4 0.8, NaHPO4 1.0, CaCl2 1.8, D-Glucose 5.5, HEPES 30, pH 7.40] werden die Zellen zweimal bei 100 x g zentrifugiert und in BSS resuspendiert. Nach Bestimmung der Zellzahl werden die Zellen mit Hilfe eines Ultra-Turrax homogenisiert und für 10 Minuten bei 3000 x g zentrifugiert. Der Überstand wird verworfen und das Pellet in Tris-Puffer (10 mM Tris, 50 mM NaCl, 5 mM MgCl2, 1 mM EDTA, pH 7.40), angereichert mit 1% Rinderserum-Albumin und 0.1% Bacitracin, rezentrifugiert und resuspendiert (1 ml / 1000000 Zellen). Das Homogenat wird bei -80°C eingefroren. Die Membranpräparationen sind bei diesen Bedingungen für mehr als 6 Wochen stabil. Nach Auftauen wird das Homogenat 1:10 mit Assay-Puffer (50 mM Tris, 150 mM NaCl, 5 mM MgCl2, 1 mM EDTA, pH 7.40) verdünnt und 30 Sekunden lang mit einem Ultra-Turrax homogenisiert. 230 µl des Homogenats werden für 180 Minuten bei Raumtemperatur mit 50 pM ^125I-Iodotyrosyl-Calcitonin-Gene-Related Peptide (Amersham) und ansteigenden Konzentrationen der Testsubstanzen in einem Gesamtvolumen von 250 µl inkubiert. Die Inkubation wird durch rasche Filtration durch mit Polyethylenimin (0.1%) behandelte GF/B-Glasfaserfilter mittels eines Zellharvesters beendet. Die an Protein gebundene Radioaktivität wird mit Hilfe eines Gammacounters bestimmt. Als nichtspezifische Bindung wird die gebundene Radioaktivität nach Gegenwart von 1 µM humanem CGRP-alpha während der Inkubation definiert. […]

T1 sequence (Q16602 23-461): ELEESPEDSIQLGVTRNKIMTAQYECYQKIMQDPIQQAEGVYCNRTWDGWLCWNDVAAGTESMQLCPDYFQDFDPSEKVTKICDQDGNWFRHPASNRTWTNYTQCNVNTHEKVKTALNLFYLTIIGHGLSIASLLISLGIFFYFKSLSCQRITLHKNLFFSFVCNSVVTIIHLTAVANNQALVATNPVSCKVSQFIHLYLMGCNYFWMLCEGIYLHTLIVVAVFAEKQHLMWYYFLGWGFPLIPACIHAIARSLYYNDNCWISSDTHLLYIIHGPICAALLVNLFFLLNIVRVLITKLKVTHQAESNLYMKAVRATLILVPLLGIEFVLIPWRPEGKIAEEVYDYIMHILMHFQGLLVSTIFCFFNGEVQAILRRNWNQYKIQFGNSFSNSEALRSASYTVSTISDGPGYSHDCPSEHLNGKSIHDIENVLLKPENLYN
T1 sequence (O60894 27-148): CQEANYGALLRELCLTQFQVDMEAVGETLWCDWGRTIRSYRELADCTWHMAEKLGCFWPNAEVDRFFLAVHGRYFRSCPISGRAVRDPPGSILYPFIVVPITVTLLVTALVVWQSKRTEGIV

| SMILES | Ki |
| --- | --- |
| Cn1cc(C(=O)c2cc(N3CCC4(CC3)NC(=O)Nc3ccccc34)ncn2)c2ccccc21 [(1), 1-(6-(1-Methyl-1H-indol-3-carbonyl)pyrimidin-4-yl)-1'H-spiro[piperidin-4,4'-chinazolin]-2'(3'H)-on] | 0.081 µM |
| Cn1cc(C(=O)c2cc(Nc3ccc4c(c3)CC3(C4)C(=O)Nc4ncccc43)ncn2)c2ccccc21 (stereo not drawn) [(2), 5-(6-(1-Methyl-1H-indol-3-carbonyl)pyrimidin-4-ylamino)-1,3-dihydrospiro[inden-2,3'-pyrrolo[2,3-b]pyridin]-2'(1'H)-on] | 0.089 µM |
| Cn1cc(C(=O)c2cc(N3CCC4(CC3)OC(=O)Nc3ccccc34)ncn2)c2ccccc21 [(3), 1'-(6-(1-Methyl-1H-indol-3-carbonyl)pyrimidin-4-yl)spiro[benzo[d][1,3]oxazin-4,4'-piperidin]-2(1H)-on] | 0.204 µM |
